Legend:
Details in all cases: 1 µM; inhibitor
CDK7 = CDK7 (Homo sapiens, UniProt P50613)
CDK4/CycD2 = CDK4/CycD2 (Homo sapiens, UniProt P11802)
TTK = TTK (Homo sapiens, UniProt P33981)
EPHB2 = EPHB2 (Homo sapiens, UniProt P29323)
DAPK1 = DAPK1 (Homo sapiens, UniProt P53355)
JAK1 = JAK1 (Homo sapiens, UniProt P23458)
TBK1 = TBK1 (Homo sapiens, UniProt Q9UHD2)
BTK = BTK (Homo sapiens, UniProt Q06187)
BRK = BRK (Homo sapiens, UniProt Q13882)
MEKK2 = MEKK2 (Homo sapiens, UniProt Q9Y2U5)
SLK = SLK (Homo sapiens, UniProt Q9H2G2)
STK25 = STK25 (Homo sapiens, UniProt O00506)
NEK3 = NEK3 (Homo sapiens, UniProt P51956)
SNK = SNK (Homo sapiens, UniProt Q9NYY3)
PYK2 = PYK2 (Homo sapiens, UniProt Q14289)
TAOK2 = TAOK2 (Homo sapiens, UniProt Q9UL54)
EPHA3 = EPHA3 (Homo sapiens, UniProt P29320)
PKCi = PKCi (Homo sapiens, UniProt P41743)
MARK1 = MARK1 (Homo sapiens, UniProt Q9P0L2)
CDK19 = CDK19 (Homo sapiens, UniProt Q9BWU1)
CDK18 = CDK18 (Homo sapiens, UniProt Q07002)
NDR1 = NDR1 (Homo sapiens, UniProt Q15208)
LYN = LYN (Homo sapiens, UniProt P07948)
MAP3K9 = MAP3K9 (Homo sapiens, UniProt P80192)
CDK4 = CDK4 (Homo sapiens, UniProt P11802)
CDK4/CycD3 = CDK4/CycD3 (Homo sapiens, UniProt P11802)
CDK20/CycT1 = CDK20/CycT1 (Homo sapiens, UniProt Q8IZL9)
PKCa = PKCa (Homo sapiens, UniProt P17252)
PBK = PBK (Homo sapiens, UniProt Q96KB5)
DCAMKL2 = DCAMKL2 (Homo sapiens, UniProt Q8N568)
RPS6KB2 = RPS6KB2 (Homo sapiens, UniProt Q9UBS0)

CDK19, sequence (Q9BWU1 whole entry): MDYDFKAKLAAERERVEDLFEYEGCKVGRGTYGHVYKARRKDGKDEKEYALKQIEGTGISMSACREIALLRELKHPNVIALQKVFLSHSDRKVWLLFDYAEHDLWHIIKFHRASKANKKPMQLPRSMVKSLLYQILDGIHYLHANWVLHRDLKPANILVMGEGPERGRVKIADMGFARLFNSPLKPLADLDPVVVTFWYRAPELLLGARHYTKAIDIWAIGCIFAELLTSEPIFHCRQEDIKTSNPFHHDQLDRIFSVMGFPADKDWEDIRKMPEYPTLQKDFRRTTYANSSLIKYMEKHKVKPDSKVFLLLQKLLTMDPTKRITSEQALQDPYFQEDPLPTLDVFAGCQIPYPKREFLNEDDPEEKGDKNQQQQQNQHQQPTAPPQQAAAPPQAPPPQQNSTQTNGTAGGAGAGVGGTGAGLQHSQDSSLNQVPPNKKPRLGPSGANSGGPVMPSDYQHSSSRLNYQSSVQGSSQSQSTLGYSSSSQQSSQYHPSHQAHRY
BRK, sequence (Q13882 whole entry): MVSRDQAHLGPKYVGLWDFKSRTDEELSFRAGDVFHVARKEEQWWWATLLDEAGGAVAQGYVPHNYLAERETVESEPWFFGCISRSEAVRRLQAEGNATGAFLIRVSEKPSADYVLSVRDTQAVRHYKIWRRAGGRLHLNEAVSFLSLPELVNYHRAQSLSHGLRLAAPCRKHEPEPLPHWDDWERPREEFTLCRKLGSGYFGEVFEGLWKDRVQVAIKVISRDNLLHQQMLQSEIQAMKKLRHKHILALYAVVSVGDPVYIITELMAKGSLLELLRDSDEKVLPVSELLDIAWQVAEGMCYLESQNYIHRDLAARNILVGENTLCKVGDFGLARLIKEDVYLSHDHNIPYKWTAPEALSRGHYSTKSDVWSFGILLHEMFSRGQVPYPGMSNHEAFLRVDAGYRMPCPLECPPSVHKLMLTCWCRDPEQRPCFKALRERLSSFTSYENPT
TBK1, sequence (Q9UHD2 whole entry): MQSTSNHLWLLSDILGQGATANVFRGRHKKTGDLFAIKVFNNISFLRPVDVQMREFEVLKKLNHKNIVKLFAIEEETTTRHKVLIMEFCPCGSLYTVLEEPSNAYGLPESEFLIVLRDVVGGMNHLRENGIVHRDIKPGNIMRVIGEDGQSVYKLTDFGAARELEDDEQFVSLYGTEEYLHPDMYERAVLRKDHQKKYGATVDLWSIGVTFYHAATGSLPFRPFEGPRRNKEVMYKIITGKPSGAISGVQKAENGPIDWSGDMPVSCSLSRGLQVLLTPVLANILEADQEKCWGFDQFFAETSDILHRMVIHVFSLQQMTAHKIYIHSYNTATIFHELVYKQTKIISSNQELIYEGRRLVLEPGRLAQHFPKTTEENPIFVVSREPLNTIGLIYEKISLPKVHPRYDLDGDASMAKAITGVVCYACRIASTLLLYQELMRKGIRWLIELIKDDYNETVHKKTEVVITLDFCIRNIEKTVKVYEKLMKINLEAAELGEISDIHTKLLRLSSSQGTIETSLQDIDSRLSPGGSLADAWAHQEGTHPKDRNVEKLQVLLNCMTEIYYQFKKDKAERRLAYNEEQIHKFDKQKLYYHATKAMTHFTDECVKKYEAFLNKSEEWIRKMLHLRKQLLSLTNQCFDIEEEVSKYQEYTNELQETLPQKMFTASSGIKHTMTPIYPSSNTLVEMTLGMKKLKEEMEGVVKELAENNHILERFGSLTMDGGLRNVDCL
CDK20/CycT1, sequence (Q8IZL9 whole entry): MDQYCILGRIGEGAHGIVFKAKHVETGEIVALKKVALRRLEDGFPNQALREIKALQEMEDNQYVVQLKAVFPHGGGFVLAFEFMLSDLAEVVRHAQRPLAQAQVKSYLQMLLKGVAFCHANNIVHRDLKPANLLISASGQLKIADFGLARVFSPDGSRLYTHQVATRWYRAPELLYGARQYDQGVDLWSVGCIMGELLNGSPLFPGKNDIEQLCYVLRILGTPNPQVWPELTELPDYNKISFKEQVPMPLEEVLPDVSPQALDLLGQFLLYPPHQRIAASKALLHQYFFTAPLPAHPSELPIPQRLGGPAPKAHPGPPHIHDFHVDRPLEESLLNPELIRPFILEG
CDK20/CycT1, sequence (O60563 whole entry partner): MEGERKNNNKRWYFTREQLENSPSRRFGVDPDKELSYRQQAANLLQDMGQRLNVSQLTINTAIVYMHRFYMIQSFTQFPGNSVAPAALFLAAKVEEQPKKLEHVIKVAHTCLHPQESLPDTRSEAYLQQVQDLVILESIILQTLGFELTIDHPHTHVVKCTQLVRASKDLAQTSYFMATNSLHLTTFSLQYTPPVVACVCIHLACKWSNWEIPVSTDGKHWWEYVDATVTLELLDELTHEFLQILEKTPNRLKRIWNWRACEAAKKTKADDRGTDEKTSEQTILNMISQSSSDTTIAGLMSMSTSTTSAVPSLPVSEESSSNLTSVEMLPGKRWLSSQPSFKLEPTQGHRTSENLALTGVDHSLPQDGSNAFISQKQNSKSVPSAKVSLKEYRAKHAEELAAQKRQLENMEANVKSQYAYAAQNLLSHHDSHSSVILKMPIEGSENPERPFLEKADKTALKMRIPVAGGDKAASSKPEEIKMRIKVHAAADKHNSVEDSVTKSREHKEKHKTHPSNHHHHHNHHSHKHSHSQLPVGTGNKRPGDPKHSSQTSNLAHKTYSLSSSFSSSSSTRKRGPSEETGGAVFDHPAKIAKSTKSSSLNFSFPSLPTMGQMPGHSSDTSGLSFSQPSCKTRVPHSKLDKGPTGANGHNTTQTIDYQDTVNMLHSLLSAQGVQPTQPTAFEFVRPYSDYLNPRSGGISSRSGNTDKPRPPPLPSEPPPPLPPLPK
TAOK2, sequence (Q9UL54 whole entry): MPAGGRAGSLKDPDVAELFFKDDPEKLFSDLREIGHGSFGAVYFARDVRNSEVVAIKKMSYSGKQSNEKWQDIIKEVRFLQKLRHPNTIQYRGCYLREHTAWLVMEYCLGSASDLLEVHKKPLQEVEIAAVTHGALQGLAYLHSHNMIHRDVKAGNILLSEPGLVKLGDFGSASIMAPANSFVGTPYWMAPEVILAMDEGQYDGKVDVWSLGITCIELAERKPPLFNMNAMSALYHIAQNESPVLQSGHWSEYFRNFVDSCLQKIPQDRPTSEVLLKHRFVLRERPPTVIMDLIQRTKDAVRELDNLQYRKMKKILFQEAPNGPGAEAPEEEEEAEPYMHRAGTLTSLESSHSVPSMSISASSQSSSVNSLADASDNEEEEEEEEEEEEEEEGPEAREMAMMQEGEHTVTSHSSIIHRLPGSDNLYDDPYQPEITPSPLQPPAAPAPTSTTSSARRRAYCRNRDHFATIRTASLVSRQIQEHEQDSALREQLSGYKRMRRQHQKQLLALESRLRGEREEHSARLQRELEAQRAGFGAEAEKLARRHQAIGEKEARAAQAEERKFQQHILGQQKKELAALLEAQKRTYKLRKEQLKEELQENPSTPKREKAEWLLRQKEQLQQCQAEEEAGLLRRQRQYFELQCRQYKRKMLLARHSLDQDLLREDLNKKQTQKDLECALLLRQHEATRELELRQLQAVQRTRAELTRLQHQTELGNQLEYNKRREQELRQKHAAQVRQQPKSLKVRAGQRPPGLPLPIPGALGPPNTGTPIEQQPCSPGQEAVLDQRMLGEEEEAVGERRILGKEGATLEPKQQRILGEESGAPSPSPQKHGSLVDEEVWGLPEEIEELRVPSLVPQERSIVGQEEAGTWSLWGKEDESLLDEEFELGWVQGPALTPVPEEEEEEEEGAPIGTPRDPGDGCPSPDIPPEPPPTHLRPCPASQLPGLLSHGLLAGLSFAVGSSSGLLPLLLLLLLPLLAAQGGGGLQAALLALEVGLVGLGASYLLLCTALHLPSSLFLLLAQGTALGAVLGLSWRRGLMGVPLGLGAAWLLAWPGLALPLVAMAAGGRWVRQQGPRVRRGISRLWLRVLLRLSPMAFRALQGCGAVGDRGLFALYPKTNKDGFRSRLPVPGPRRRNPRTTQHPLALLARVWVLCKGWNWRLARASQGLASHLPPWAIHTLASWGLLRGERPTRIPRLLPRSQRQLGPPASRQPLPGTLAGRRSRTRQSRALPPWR
CDK4, sequence (P11802 whole entry): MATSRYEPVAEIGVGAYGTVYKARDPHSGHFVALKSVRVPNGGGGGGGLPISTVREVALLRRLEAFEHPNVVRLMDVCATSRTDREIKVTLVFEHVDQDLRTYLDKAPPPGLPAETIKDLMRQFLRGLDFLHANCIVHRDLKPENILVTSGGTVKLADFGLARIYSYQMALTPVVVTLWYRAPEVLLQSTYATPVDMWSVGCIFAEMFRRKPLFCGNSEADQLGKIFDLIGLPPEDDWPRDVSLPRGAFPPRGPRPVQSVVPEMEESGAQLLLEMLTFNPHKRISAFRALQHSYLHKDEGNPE

## O=C1NCCCCCNc2nc(c3ccccc3n2)Nc2cc1[nH]n2 [21c, (Z)-3^1H-2,5,11-triaza-1(4,2)-quinazolina-3(3,5)-pyrazolacycloundecaphan-4-one]
CDK7
  21c Remaining activity, percent of control [%]: 112.5%
CDK4/CycD2
  21c Remaining activity, percent of control [%]: 106.8%
TTK
  21c Remaining activity, percent of control [%]: 97.7%
EPHB2
  21c Remaining activity, percent of control [%]: 100.1%
DAPK1
  21c Remaining activity, percent of control [%]: 94.0%
JAK1
  21c Remaining activity, percent of control [%]: 88.0%
TBK1
  21c Remaining activity, percent of control [%]: 111.6%
BTK
  21c Remaining activity, percent of control [%]: 96.6%
BRK
  21c Remaining activity, percent of control [%]: 99.3%
MEKK2
  21c Remaining activity, percent of control [%]: 103.5%
SLK
  21c Remaining activity, percent of control [%]: 61.9%
STK25
  21c Remaining activity, percent of control [%]: 57.2%
NEK3
  21c Remaining activity, percent of control [%]: 94.1%
SNK
  21c Remaining activity, percent of control [%]: 78.3%
PYK2
  21c Remaining activity, percent of control [%]: 80.8%
TAOK2
  21c Remaining activity, percent of control [%]: 93.6%
EPHA3
  21c Remaining activity, percent of control [%]: 97.7%
PKCi
  21c Remaining activity, percent of control [%]: 83.5%
MARK1
  21c Remaining activity, percent of control [%]: 96.0%
CDK19
  21c Remaining activity, percent of control [%]: 92.8%
CDK18
  21c Remaining activity, percent of control [%]: 96.7%
NDR1
  21c Remaining activity, percent of control [%]: 86.7%
LYN
  21c Remaining activity, percent of control [%]: 139.3%
MAP3K9
  21c Remaining activity, percent of control [%]: 95.7%
CDK4
  21c Remaining activity, percent of control [%]: 84.5%
CDK4/CycD3
  21c Remaining activity, percent of control [%]: 111.1%
CDK20/CycT1
  21c Remaining activity, percent of control [%]: 89.1%
PKCa
  21c Remaining activity, percent of control [%]: 107.7%
PBK
  21c Remaining activity, percent of control [%]: 98.8%
DCAMKL2
  21c Remaining activity, percent of control [%]: 99.3%
RPS6KB2
  21c Remaining activity, percent of control [%]: 99.0%
